Assay results published in patent US20260193264A1, “BENZOYPARAZINE PYRAZINES AND THEIR USES” (FOGHORN THERAPEUTICS INC., priority 2022, published 2026).

Key:
[1] = target: T1, HiBiT-BRM fusion protein in stable HeLa cell line (Homo sapiens, UniProt P51531); assay: HiBiT-BRM cell-based degradation assay (Nano-Glo HiBiT Lytic Detection, 24 h); design: DC50: scale not given here; settings: HeLa HiBiT-BRM cells
T1 construct: expressed in transfected cells
In short: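 HiBiT-tagged BRM levels in a stable HeLa line are measured after one day of compound treatment (up to 30 μM final, duplicate 10-point curves) by adding LgBiT lytic reagent and reading bioluminescence; values are expressed relative to vehicle and a 2 μM degrader control.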

[2] = target: T2, HiBit-BRG1 fusion protein in stable HeLa cell line expressing HiBit-BRG1 and LgBit (Homo sapiens, UniProt P51532); assay: HiBiT-BRG1 cell-based degradation assay (Nano-Glo HiBiT, 24 h); settings: HeLa HiBit-BRG1/LgBit cells
T2 construct: expressed in transfected cells
T2 sequence (P51532 whole entry, the tested form may be a part): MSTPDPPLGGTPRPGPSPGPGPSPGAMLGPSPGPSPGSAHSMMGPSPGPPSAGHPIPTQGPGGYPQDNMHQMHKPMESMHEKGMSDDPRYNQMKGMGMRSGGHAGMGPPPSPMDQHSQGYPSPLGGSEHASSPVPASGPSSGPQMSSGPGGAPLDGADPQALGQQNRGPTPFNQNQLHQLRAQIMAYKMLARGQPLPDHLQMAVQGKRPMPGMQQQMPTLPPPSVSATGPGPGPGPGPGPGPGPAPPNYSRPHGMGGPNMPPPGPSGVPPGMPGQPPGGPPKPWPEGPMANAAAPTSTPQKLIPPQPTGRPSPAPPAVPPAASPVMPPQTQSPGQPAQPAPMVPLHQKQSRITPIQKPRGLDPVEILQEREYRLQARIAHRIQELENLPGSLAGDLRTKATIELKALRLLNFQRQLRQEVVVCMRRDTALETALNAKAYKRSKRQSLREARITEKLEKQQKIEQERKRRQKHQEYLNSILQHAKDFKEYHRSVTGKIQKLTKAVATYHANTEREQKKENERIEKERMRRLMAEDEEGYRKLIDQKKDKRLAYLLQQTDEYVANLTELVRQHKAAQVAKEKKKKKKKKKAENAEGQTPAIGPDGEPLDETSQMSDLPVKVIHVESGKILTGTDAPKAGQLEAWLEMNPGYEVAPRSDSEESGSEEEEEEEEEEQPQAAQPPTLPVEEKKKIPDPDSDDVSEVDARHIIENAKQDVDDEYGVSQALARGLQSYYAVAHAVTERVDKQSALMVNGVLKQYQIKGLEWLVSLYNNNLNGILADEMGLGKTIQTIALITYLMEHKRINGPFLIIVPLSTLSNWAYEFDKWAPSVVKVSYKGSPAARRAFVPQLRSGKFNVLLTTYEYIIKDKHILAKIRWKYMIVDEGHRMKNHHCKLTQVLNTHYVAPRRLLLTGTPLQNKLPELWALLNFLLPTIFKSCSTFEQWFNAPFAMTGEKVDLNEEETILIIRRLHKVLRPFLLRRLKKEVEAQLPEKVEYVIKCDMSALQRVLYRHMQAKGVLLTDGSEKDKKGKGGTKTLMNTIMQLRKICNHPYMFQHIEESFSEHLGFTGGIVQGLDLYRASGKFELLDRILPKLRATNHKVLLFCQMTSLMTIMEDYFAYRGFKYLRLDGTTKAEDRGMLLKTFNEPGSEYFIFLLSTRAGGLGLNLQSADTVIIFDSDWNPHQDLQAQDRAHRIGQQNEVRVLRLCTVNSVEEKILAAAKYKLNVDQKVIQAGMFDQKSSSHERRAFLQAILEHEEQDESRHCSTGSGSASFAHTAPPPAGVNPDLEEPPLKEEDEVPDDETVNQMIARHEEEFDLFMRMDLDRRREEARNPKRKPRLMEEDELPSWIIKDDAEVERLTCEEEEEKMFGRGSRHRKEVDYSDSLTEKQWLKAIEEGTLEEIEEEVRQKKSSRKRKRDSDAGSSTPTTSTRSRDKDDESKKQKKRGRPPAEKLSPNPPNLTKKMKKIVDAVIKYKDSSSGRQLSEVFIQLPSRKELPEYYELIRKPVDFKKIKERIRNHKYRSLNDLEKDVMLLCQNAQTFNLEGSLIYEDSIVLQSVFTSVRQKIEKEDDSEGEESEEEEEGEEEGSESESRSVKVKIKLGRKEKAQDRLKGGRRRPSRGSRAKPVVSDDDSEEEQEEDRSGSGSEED
In short: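 Degradation calculated from NanoBiT luminescence relative to DMSO-treated cells (high) and cells given 2 μM known BRM/BRG1 degrader (low). HeLa cells stably expressing HiBiT-BRG1 plus LgBiT were exposed to compound for 24 h before lytic HiBiT detection.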

T1 sequence (P51531 whole entry, the tested form may be a part): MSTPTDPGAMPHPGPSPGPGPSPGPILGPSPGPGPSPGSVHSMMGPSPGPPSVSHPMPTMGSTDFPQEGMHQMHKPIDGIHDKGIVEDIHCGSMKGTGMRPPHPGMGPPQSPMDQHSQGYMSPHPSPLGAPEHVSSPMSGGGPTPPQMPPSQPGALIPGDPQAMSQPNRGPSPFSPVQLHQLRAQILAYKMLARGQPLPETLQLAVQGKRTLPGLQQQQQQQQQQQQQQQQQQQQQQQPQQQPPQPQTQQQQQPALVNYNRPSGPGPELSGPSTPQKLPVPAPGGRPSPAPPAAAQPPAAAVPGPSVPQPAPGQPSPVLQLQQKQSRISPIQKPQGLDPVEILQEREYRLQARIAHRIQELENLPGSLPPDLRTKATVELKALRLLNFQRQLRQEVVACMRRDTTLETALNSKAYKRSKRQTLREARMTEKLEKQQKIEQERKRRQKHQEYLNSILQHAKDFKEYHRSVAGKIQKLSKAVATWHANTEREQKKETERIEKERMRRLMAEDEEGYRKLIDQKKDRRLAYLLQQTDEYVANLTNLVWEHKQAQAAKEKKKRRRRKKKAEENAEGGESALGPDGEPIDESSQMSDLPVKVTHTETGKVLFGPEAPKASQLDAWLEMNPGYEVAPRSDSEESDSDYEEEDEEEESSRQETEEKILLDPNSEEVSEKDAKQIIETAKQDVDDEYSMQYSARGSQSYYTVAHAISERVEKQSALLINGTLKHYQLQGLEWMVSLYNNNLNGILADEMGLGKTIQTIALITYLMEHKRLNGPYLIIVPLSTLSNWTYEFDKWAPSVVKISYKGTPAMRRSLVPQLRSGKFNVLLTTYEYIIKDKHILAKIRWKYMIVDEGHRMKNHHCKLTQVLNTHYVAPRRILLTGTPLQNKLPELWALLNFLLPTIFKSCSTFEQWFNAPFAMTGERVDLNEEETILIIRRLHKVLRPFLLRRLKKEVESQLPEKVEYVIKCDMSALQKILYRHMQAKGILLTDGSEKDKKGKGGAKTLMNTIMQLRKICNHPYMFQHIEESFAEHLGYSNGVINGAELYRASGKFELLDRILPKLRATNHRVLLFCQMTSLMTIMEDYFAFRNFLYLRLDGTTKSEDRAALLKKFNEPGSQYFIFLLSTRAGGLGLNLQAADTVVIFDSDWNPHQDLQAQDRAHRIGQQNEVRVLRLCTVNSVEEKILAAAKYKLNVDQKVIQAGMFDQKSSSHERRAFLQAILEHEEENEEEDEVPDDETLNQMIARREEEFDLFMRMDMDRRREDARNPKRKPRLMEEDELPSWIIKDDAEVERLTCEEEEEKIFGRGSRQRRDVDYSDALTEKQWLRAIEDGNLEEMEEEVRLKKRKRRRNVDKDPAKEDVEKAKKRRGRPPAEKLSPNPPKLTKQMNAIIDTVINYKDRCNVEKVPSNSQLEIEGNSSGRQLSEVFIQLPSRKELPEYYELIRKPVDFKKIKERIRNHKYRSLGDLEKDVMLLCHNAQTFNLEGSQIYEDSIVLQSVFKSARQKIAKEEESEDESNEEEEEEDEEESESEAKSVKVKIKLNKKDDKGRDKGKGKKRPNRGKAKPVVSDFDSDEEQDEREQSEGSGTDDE

In the case of `Cc1ncsc1-c1ccc([C@H](C)NC(=O)[C@@H]2C[C@@H](O)CN2C(=O)C(C(C)C)n2cc(N3C4CCC3CN(c3ccc5nnc(-c6ccccc6O)cc5c3)C4)nn2)cc1` (stereo partly shown) [Compound 285], the DC50 ([1]; read-out: BRM HiBit Degradation IC50) is reported as < 0.01 µM, the “BRM HiBit Degradation Maximum (%)” value ([1]; top dose 30 μM) is reported as “A (“A” indicates maximum degradation ≥75%)” and the DC50 ([2]; read-out: BRMG1 HiBit Degradation IC50) is reported as > 0.01 µM. The Dmax ([2]; top dose 30 μM, read-out: BRG1 HiBit Degradation Maximum (%)) was > 75%.
